Results as given in patent US5747661A, “Retinoid-inducible response elements” (Howard Hughes Medical Institute).
“Also recorded” adds a separate entry of the source.

Tests used:
[1] = tested on: RXRs; details: from the literature; cited from earlier work
[2] = tested on: RARs; details: from the literature; cited from earlier work
[3] = target: T1, GAL4-LXR (Homo sapiens, UniProt Q13133); assay: GAL4-receptor chimera ligand activation, GAL4-LXR with TK-MH100x4-LUC in CV1 cells; assay type: cell-based; details: 10^-5 M 9cRA, 10^-5 M TTNPB, 10^-4 M methoprene acid, FIG. 3c
T1 construct: hLXRα 166-447; expressed in transfected cells; host or cells: CV-1
T1 sequence (Q13133 166-447): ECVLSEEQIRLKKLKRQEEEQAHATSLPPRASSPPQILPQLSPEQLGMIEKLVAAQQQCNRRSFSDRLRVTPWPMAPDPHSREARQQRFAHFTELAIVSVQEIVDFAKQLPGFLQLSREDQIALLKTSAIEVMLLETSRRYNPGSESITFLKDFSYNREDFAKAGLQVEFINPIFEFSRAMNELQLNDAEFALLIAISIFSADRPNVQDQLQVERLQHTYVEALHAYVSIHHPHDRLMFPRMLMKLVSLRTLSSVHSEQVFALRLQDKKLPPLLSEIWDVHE
Description: (§1) FIG. 3C illustrates the ligand specificity of the GAL4-receptor chimeras. […] In both 3B and 3C, CV1 cells were cotransfected as described previously with CMX vectors driving expression of the indicated hybrid proteins and the reporter plasmid TK-MH100x4-LUC, which contains four copies of the GAL4 DNA upstream activation sequence. In FIG. 3C, ligands were added as described with reference to FIG. 2. Luciferase activity is expressed as RLUs (relative light units) corrected for transfection efficiency using an internal […] standard and represents the mean of triplicate assays (±SEM).
Construction of wild-type receptor inserted into the expression vectors RSV and CMX, have been detailed elsewhere (Gigueere et al., in Cell46:645-652 (1986); Umesono et al., in Cell65:1255-1266 (1991); Mangelsdorf et al., (1990) supra). The hLXRα cDNA insert was excised from the plasmid pXR2ΔRV with Kpn1 and BamHI and ligated into the expression vectors RSV and CMX. Chimeric Gal4-receptor expression plasmids (e.g. CMX-GAL4-LXRα) were constructed by first ligating the GAL4 portion of pSG424 (Sadowski and Ptashne, in Nucleic Acids Res. 17:[…] (1989)) into the HindIII/SacI sites of pCMX (Umesono et al., in Cell 65:1255-1266 (1991)) to create pCMX-GAL4. This vector contains the CMV promoter fused to the coding sequence for GAL4 (1-147), followed by inframe polylinker cloning sites and translational stop codons. The cDNAs encoding the ligand-binding domain (LBD) of each of the receptors were then ligated into the polylinker to create GAL4-LBD fusions.
The following receptor amino acid sequences were used for these constructions and their corresponding DNA sequences ligated into pCMX-GAL4:hLXRα 166-447, hRXRα 203-462 and hRARα 185-462.
To address the possibility that the retinoid response elicited by LXRα was through the direct interaction of ligand with the putative ligand binding domain of LXRα, ligand activation experiments were performed with the GAL4-receptor hybrids. […]

[4] = target: T2, LXR/RXR heterodimer (Homo sapiens, UniProt P19793); assay: CV1 cotransfection of both hLXRα and hRXRα with LXRE reporter TK-LXRE2-LUC; assay type: cell-based; details: CV1 cells, 25 ng hLXRα:2.5 ng hRXRα; 10^-4 M methoprene acid; FIG. 4
T2 construct: Construction of wild-type receptor inserted into the expression vectors RSV and CMX; expressed in transfected cells; host or cells: CV-1
Description: Thus, expression plasmids for hLXRα, hRXRα, or no receptor (-) were cotransfected into CV1 cells in combination with the reporter plasmids TK-LUC or TK-LXRE2-LUC as indicated. Cells were then incubated with ethanol control (-) or […] methoprene acid (+) and assayed for luciferase activity as described above. TK-LXRE2-LUC contains two copies of the LXRE. In experiments in which LXR and RXR plasmids were cotransfected together the ratio of the two expression plasmids was 1:0.1 (25 ng hLXRα:2.5 ng hRXRα). In all other experiments were LXR and RXR were added alone, the amount of each receptor expression plasmid was 25 ng.

[5] = target: T3, hRXRα (Homo sapiens, UniProt P19793); assay: CV1 cotransfection of hRXRα alone with LXRE luciferase reporter; assay type: cell-based; details: CV1 cells, 25 ng hRXRα; 10^-4 M methoprene acid; FIG. 4
T3 construct: Construction of wild-type receptor inserted into the expression vectors RSV and CMX; expressed in transfected cells; host or cells: CV-1
Description: (§2) CV-1 cells were maintained at 37° C., 5% CO2 in DMEM containing 5% calf bovine serum (CBS). Transfections were performed in 8-well plates in media containing 5% dextran-charcoal stripped CBS by the calcium phosphate coprecipitation technique as described previously (Mangelsdorf et al., (1990) supra). Eight hours after transfections ligands were delivered to cells at 10^3 -fold dilutions (0.1% vol/vol of solvent in media). Retinoids (gifts from Marcus Boehm at Ligand Pharmaceuticals, Inc.) were manipulated under gold light and stored dark in ethanol or methanol under nitrogen gas at -80° C. Cells were harvested 36 hours after addition of ligand and analyzed for luciferase and β-galactosidase activity using a Dynatech microtiter plate Model ML3000 luminometer and a Model MR5000 spectrophotometer, respectively.
(§3) For most experiments, cotransfection of DNA into mammalian cells was accomplished with 50 ng reporter plasmid, 50 ng RSV- or CMX-βgal, 25 ng of each receptor expression plasmid and pGEM carrier to give 375 ng DNA/well. For controls, the empty CMX vector was used in place of the receptor cDNA. For the GAL4-receptor chimera experiments, 30 ng receptor and 80 ng of reporter plasmid were used. For GAL4 and VP16 chimera interaction assays, 30 ng of GAL4-LXRα and 15 ng of the VP16-RAR or -RXR were used along with 80 ng of the reporter plasmid. […]

[6] = tested on: hLXRα; assay: CV-1 cotransfection assay, hLXRα expression plasmid with LXRE luciferase reporter (TK-LXRE3-LUC / TK-LXRE2-LUC); assay type: cell-based, human
Description: as §2
For most experiments, cotransfection of DNA into mammalian cells was accomplished with 50 ng reporter plasmid, 50 ng RSV- or CMX-βgal, 25 ng of each receptor expression plasmid and pGEM carrier to give 375 ng DNA/well. For controls, the empty CMX vector was used in place of the receptor cDNA. For the GAL4-receptor chimera experiments, 30 ng receptor and 80 ng of reporter plasmid were used. For GAL4 and VP16 chimera interaction assays, 30 ng of GAL4-LXRα and 15 ng of the VP16-RAR or -RXR were used along with 80 ng of the reporter plasmid. All transfection data points were normalized using an internal β-galactosidase marker (Mangelsdorf et al., (1990) supra) and represent the mean of duplicate or triplicate assays.
To identify a potential ligand for the orphan receptor LXRα, a cell-based cotransfection screening assay similar to that used to successfully identify the RXR ligand (see Mangelsdorf et al., (1990) supra; Heyman et al., in Cell68:397-406 (1992)) was employed. Initially an LXR responsive gene was unknown, therefore the preliminary experiments were designed to first identify an LXR-specific DNA binding sequence that could serve as an LXR responsive element (referred to as an LXRE). […] Thus, an assay system was established by transfecting CV-1 cells with an expression plasmid harboring the cDNA for LXRα and the luciferase reporter plasmid TK-LXRE3-LUC (see FIG. 2a). TK-LXRE3-LUC contains three copies of the LXRE defined herein; TK-CRBPII-LUC contains the RXRE from the rat CRBPII promoter (Mangelsdorf et al., (1991) supra)); TK-βRE-LUC contains the RAR response element from the mouse RARβ2 promoter (Sucov et al., (1990) supra). Luciferase activity is expressed in relative light units (RLU) and represents the mean of triplicate assays (±SEM) normalized to βgal as an internal standard.
Thus, expression plasmids for hLXRα, hRXRα, or no receptor (-) were cotransfected into CV1 cells in combination with the reporter plasmids TK-LUC or TK-LXRE2-LUC as indicated. […]

[7] = target: T4, hRARα (Homo sapiens, UniProt P10276); assay: CV-1 cotransfection assay with RAR response element luciferase reporter (TK-βRE-LUC); assay type: cell-based; details: CV1 cells; 10^-5 M TTNPB, 10^-4 M methoprene acid; occurs also without transfected RAR or RXR
T4 construct: Construction of wild-type receptor inserted into the expression vectors RSV and CMX; expressed in transfected cells; host or cells: CV-1
Description: as §2, §3

[8] = target: T3, hRXRα; assay: CV-1 cotransfection assay, hRXRα expression plasmid with RXRE luciferase reporter TK-CRBPII-LUC; assay type: cell-based; details: CV1 cells, 10^-4 M methoprene acid, FIG. 2d
Description: as §2, §3

[9] = target: T5, GAL4-RAR (Homo sapiens, UniProt P10276); assay: GAL4-receptor chimera ligand activation, GAL4-RAR with TK-MH100x4-LUC in CV1 cells; assay type: cell-based; details: 10^-5 M 9cRA, 10^-5 M TTNPB, 10^-4 M methoprene acid, FIG. 3c
T5 construct: hRARα 185-462; expressed in transfected cells; host or cells: CV-1
T5 sequence (P10276 185-462): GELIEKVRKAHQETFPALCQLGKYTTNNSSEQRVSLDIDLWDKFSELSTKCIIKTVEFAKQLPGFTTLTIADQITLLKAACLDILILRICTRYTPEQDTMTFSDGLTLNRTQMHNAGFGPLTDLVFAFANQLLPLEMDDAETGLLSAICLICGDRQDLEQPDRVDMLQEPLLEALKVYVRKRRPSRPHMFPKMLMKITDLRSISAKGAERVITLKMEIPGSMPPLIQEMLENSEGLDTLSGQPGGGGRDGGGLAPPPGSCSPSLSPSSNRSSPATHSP
Description: as §1
(§4) The hLXRα cDNA insert was excised from the plasmid pXR2ΔRV with Kpn1 and BamHI and ligated into the expression vectors RSV and CMX. […] The cDNAs encoding the ligand-binding domain (LBD) of each of the receptors were then ligated into the polylinker to create GAL4-LBD fusions.
(§5) Such heterologous system provides an effective means for directly assaying receptor/ligand interactions, even in the presence of endogenous wild-type receptors.

[10] = target: T6, GAL4-RXR (Homo sapiens, UniProt P19793); assay: GAL4-receptor chimera ligand activation, GAL4-RXR with TK-MH100x4-LUC in CV1 cells; assay type: cell-based; details: 10^-5 M 9cRA, 10^-5 M TTNPB, 10^-4 M methoprene acid, FIG. 3c
T6 construct: hRXRα 203-462; expressed in transfected cells; host or cells: CV-1
Description: as §1, §4, §5

T3 sequence (P19793 whole entry): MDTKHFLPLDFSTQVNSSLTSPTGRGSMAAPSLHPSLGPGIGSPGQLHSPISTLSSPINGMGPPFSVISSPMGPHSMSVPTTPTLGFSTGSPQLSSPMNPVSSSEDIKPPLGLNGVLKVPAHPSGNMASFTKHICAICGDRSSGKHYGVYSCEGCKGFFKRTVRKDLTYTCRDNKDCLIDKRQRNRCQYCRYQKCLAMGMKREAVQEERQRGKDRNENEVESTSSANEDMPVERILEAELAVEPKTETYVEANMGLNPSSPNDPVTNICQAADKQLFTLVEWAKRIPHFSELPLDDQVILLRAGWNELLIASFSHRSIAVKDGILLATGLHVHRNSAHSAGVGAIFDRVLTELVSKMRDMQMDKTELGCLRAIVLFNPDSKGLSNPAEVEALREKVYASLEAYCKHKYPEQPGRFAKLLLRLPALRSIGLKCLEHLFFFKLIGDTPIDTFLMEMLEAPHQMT
T6 sequence (P19793 203-462): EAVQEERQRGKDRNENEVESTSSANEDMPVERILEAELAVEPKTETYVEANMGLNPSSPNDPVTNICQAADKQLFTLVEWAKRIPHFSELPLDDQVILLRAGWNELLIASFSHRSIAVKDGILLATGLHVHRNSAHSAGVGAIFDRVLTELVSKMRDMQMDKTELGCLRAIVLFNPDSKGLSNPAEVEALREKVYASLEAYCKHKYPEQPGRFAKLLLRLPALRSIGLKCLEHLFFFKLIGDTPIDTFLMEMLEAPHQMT
T4 sequence (P10276 whole entry): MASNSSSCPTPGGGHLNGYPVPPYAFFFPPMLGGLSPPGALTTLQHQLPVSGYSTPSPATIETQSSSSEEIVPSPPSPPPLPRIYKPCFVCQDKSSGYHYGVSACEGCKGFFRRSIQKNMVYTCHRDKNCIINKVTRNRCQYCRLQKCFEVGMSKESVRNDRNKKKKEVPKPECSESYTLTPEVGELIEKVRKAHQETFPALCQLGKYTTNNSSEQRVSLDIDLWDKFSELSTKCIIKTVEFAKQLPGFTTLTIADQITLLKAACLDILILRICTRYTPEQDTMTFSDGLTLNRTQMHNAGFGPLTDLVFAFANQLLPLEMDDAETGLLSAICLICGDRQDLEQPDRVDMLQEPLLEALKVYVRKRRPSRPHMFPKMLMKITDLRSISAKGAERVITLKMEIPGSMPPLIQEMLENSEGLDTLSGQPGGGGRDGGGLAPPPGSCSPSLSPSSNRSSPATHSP
T4 sequence (P19793 whole entry, further chain): as the sequence (P19793 whole entry) above
T2 sequence (Q13133 whole entry A196R): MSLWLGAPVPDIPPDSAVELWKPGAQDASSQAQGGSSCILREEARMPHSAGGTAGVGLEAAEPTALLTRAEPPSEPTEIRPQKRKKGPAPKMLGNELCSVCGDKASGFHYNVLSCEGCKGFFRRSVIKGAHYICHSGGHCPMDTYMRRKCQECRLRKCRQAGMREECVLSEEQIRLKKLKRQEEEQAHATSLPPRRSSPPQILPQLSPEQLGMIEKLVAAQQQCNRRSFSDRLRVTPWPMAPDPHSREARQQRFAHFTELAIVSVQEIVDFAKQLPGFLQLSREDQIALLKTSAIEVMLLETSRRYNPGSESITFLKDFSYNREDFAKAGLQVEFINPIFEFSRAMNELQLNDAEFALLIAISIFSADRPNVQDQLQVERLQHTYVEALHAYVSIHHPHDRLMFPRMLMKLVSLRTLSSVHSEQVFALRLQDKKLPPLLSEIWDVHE
T2 sequence (P19793 whole entry): as the sequence (P19793 whole entry) above

Compound | Ligand binding / specificity for RXR [1] | Ligand binding / specificity for RAR [2] | Ligand inducible transactivation by GAL4-LXR chimera [3] | Retinoid responsive activity of TK-LXRE2-LUC with LXRα and RXRα together [4] | Ligand response of TK-LXRE2-LUC with RXRα alone [5] | Ligand response of TK-LXRE2-LUC with LXRα alone ([6]; CV1 cells, 25 ng hLXRα, methoprene acid, FIG. 4) | LXRα activation of LXRE-containing luciferase reporter (TK-LXRE3-LUC) ([6]; CV-1 cells, hLXRα transfected alone, 10^-5 M 9cRA, 10^-5 M TTNPB, 10^-4 M methoprene acid, harvested 36 hours after ligand) | Retinoid response of RAR response element reporter [7] | Response of RXRE reporter TK-CRBPII-LUC in the presence of RXRα ([8]; hRXRα transfected) | Response of RXRE reporter TK-CRBPII-LUC with RARα or LXRα transfected instead of RXRα [8] | Ligand inducible transactivation by GAL4-RAR chimera [9] | Ligand inducible transactivation by GAL4-RXR chimera [10]
CC1=C(/C=C/C(C)=C/C=C/C(C)=C/C(=O)O)C(C)(C)CCC1 [atRA, All-trans retinoic acid] | ligand for only RARs | ligand for only RARs | – | – | – | – | – | – | – | – | – | –
COC(C)(C)CCCC(C)C/C=C/C(C)=C/C(=O)O (stereo not shown) [methoprene acid] | RXR-specific | – | no activation | dramatic synergistic increase | no response | marked ligand response | strongly activated; also recorded: strongly activates transcription | occurs through an RXR homodimer | marked response | not RARα or LXRα | only activates RXR | only activates RXR
